# Experimental data taken from US20260263485A1, “AMINOSTEROL COMPOUNDS, AMINOSTEROL-CYCLODEXTRIN FORMULATIONS, AND METHODS OF USING THE SAME” (Enterin, Inc., priority 2022, published 2026).
# Assays:
# [1] = Plasma pharmacokinetics of ENT-03S cyclodextrin formulation after subcutaneous injection; format: in vivo, rat; conditions: Sprague-Dawley, rat; 20% beta-cyclodextrin formulation; SC Dose 10 mg/kg; male SD rats; plasma; mean; read-out: Tmax Mean
# Procedure: In this example, ENT-03S was formulated with unmodified beta-cyclodextrin at a concentration of 25 mg/ml ENT-03, and 20% beta-cyclodextrin, pH 7.5, buffered with phosphate.
# Male Sprague-Dawley rats were administered the ENT-03-cyclodextrin formulation subcutaneous at a dose of 10 mg/kg. Blood samples were drawn from the tail vein at various times, the concentrations of ENT-03 determined, and PK parameters determined.
# PTP1B = conditions: in vitro, bank of commercially available phosphatases; cited from earlier work
# [2] = cited from earlier work
# [3] = Identification of metabolites of ENT-03S in rat bile samples (UPLC-MS/MS); conditions: bile duct cannulated male SD rats, 10 mg/kg ENT-03S SC; for Metabolite peak area percentages Rat Bile: pooled bile 0-24 h, relative XIC peak area; for Metabolite peak area Rat Bile: pooled bile, XIC peak area
# Procedure: An equal volume of rat bile samples (50 μL) were taken from different animals at different time points following administration of ENT-03S. 50 μL of matrix was mixed with 200 μL of methanol (containing 0.1% formic acid), vortexed for 100 seconds and then centrifuged at 16,000 g for 10 minutes at 4° C. to precipitate proteins. 100 μL of the supernatant was transferred to a new tube and the supernatant diluted with 100 μt, pure water, mixed well and analyzed using UPLC-MS/MS.
# The peak area percentages of parent drug and each metabolite were determined by semi-quantitative estimation using the extracted ion chromatogram peak areas of all detected drug-related material in the sample. Metabolites with percentage of peak area>10% are proposed as major metabolites of ENT-03S.
# Bile samples were obtained from male rats at various time points following a 10 mg/kg dose of ENT-03S via subcutaneous administration in bile dicut cannulated male SD rats as detailed in Table 10. The samples were transferred on dry ice and stored at −80° C. prior to use
# Study design: An equal volume of rat bile samples (50 μL) were taken from different animals at different time points following administration of ENT-03S in study No.: PII-DMPK-ETR-21-001. 50 μL of matrix was mixed with 200 μL of methanol (containing 0.1% formic acid), vortexed for 100 seconds and then centrifuged at 16,000 g for 10 minutes at 4° C. to precipitate proteins. 100 μL of the supernatant was transferred to a new tube and the supernatant diluted with 100 μL pure water, mixed well and analyzed using UPLC-MS/MS.
# Sample preparation: For bile samples, an equal volume of samples (50 μL) are taken from different animals at various time points after the administration of each group of samples, and the same group of samples are mixed thoroughly.
# Data Analysis: UPLC-MS/MS was used for sample analysis, and was conducted using a DionexUltiMate 3000/Vanquish UHPLC system. For mass spectrometry (MS), all analysis was carried out with a Q-Exactive instrument (Thermo Fisher). A full MS scan was used to trigger the data dependent acquisition (DDA) of MS/MS scan spectra. Compound dependent parameters were optimized by ENT-03S. DDA settings were used to trigger acquisition of MS^2 spectra for ions whose intensity is in top 5 of all, with exclusion of impurity ions (m/z 149.02332, m/z 279.15909, m/z 391.28429 and m/z 445.12003), after 3 occurrences for 10 s. Dynamic exclusion settings: automatic exclusion of the ions which have been taken.
# Data Analysis: The analysis was carried out using a thermo Fisher Scientific Q Exactive instrument. Full MS scan was used to trigger the data dependent acquisition (DDA) of MS/MS scan spectra. Compound dependent parameters were optimized by ENT-03S. DDA settings were used to trigger acquisition of MS^2 spectra for ions whose intensity was in the top 5 of all, with exclusion of ions (m/z 149.02332, m/z 279 1 5909, m/z 391.28429 and m/z 445 12003), after 3 occurrences for 10 s. Data was acquired and processed using Xcalibur v4.1 software (Thermo Fisher Scientific) and Compound Discoverer 3.1 (Thermo Fisher Scientific) and Excel (Microsoft 2016).
# [4] = Identification of metabolites of ENT-03S in rat plasma and urine samples (UPLC-MS/MS); format: in vivo
# Procedure: An equal number of rat urine (50 μL) were taken from different animals at various time points following administration of ENT-03S. For plasma samples, the Hamilton pooling method was used.
# Study design: An equal number of rat urine (50 μL) samples were taken from different animals at various time points from study No.: PH-DMPK-ETR-21-001 following administration of ENT-03S. For plasma samples, the Hamilton pooling method was used.
# The samples were then analysed using UPLC-MS/MS.
# Compound dependent parameters were optimized by ENT-03S.
smiles,measurement,setting,value
"CC(CCC[C@@H](C)[C@H]1CCC2C3C(CC[C@@]21C)[C@@]1(C)CC[C@H](NCCCNCCCCNCCCN)C[C@@H]1C[C@H]3O)C(=O)O (single isomer, unassigned) [ENT-03]",Tmax,[1],2 h
same,inhibition of PTP1B relative to the other phosphatases assayed,PTP1B,most potently inhibited
same,hepatic steatosis,[2]; in vivo,reduces hepatic steatosis
same,insulin sensitivity,[2]; in vivo,acutely increases insulin sensitivity
same,food intake and body weight,[2]; peripheral and central administration to lean rodents,prolonged reduction in food intake and body weight
C[C@H](CCC[C@H](C)C(=O)O)[C@H]1CCC2C3C(CC[C@@]21C)[C@@]1(C)CC[C@H](NCCCNCCCC(=O)O)C[C@@H]1C[C@H]3O (some centres unmarked) [M10-PU/M14-RB],Metabolite peak area percentages Rat Bile,[3],3.23%
same,Metabolite peak area Rat Bile,[3],3.98E+06
C[C@H](CCC[C@H](C)C(=O)O)[C@H]1CCC2C3C(CC[C@@]21C)[C@@]1(C)CC[C@H](NCCCNCCCCNCCC(=O)O)C[C@@H]1C[C@H]3O (stereo partly drawn) [ENT-25S],Metabolite peak area percentages Rat Bile,[3],9.52%
same,Metabolite peak area Rat Bile,[3],1.17E+07
C[C@H](C[C@H](C)C(=O)O)[C@H]1CCC2C3C(CC[C@@]21C)[C@@]1(C)CC[C@H](NCCC(=O)O)C[C@@H]1C[C@H]3O (some centres unmarked) [M16-RB],Metabolite peak area percentages Rat Bile,[3],0.69%
same,Metabolite peak area Rat Bile,[3],8.45E+05
"C[C@H](CCC(=O)O)[C@H]1CCC2C3C(CC[C@@]21C)[C@@]1(C)CC[C@H](NCCCNCCCCNCCCN)C[C@@H]1C[C@H]3O (single isomer, unassigned) [ENT-17]",Metabolite peak area percentages Rat Plasma Male,"[4]; pooled male SD rat plasma 0.25-24 h after 10 mg/kg ENT-03S SC, relative XIC peak area",0.55%
same,Metabolite peak area Rat Plasma Male,"[4]; pooled male SD rat plasma after 10 mg/kg ENT-03S SC, XIC peak area",3.62E+06
same,Metabolite peak area percentages Rat Urine Male,"[4]; pooled male SD rat urine 0-24 h after 10 mg/kg ENT-03S SC, relative XIC peak area, “—”: not observed",7.56%
same,Metabolite peak area Rat Urine Male,"[4]; pooled male SD rat urine after 10 mg/kg ENT-03S SC, XIC peak area, “—”: not observed",1.70E+05
C[C@H](CCC(=O)NCCS(=O)(=O)O)[C@H]1CCC2C3C(CC[C@@]21C)[C@@]1(C)CC[C@H](NCCC(=O)O)C[C@@H]1C[C@H]3O (some centres unmarked) [M3-RB],Metabolite peak area percentages Rat Bile,[3],2.27%
same,Metabolite peak area Rat Bile,[3],2.80E+06
